What was measured:
[1] = test system: rat brain; test: microPET imaging of rat brain with [18F]fallypride produced in the microfluidic chip; assay type: in vivo; conditions: dose of about 300 μCi, microPET for about 2 hours
Excerpt: To further verify the utility of the resulting [^18F]fallypride, we produced (using the integrated microfluidic chip) a dose of about 300 μCi with about 19.55 Ci/μmol (723.35 GBq/μmol) of specific activity and about 98.62% of radiochemical purity, and obtained PET data from a rat brain. The time point used to calculate the specific activity was at the end of production, namely the time when the purified [^18F]fallypride was retrieved from chip. The rat was brought to the imaging lab to habituate about 3 hours prior to imaging. About 0.1 ml purified [^18F] fallypride was filtered through an about 0.45 μm filter (Millex-HV) and about 0.9 ml saline was added to formulate the PET probe used for rat injection. […] The accumulation and pharmacokinetics of [^18F]fallypride were as expected when evaluated in the rat brain.

[2] = Stability of final product at room temperature examined by radio-HPLC; assay type: physicochemical; conditions: duration up to about 4 hours
Experimental: A Hitachi HPLC (LaChrom Elite, Pump L-2130) equipped with a wavelength UV detector (L-2400, 254 nm) and inline radiation detector (Inline Carroll & Ramsey) was used to evaluate radiochemical purity. A C18 column (Phenomenex Gemini, particle size about 10 μm, 150×4.6 mm) was used. For the mobile phase, acetonitrile (referred as A1) mixed with water containing about 0.1% trifluoroacetic acid (TFA) was used with gradient as following: 0% A1/100% TFA for about 0-2 min, 100% A1/0% TFA for about 8-10 min. The flow rate was constantly set as about 1 mL/min. Moreover, radiochemical purity was also examined by radio thin layer chromatography (TLC) using ITLC (instant TLC) paper strips (Varian). […] The value of radioactivity was measured using a calibrated dose calibrator (Capintec, CRC-25PET). The radiochemical yields were evaluated as a percentage of total activity of ^68GaCl3 initially delivered from the generator. Unless specified elsewhere, all efficiencies are calculated based on decay-corrected values.
A radio-TLC chromatogram of synthesized product is shown in FIG. 6 and the ^68Ga-labelled peptide has an approximate retardation factor of about 0.8-1.0. Using the microfluidic device, the incorporation efficiency of 100% can be consistently achieved as determined by radio HPLC chromatogram (FIG. 7B). […]

Row | accumulation and pharmacokinetics in the rat brain [1] | SMILES | stability of final product (retention time, product purity by radio-HPLC) [2]
1 | as expected | C=CCN1CCC[C@H]1CNC(=O)c1cc(CCC[18F])cc(OC)c1OC [[^18F]fallypride] | 
2 |  | O=C([O-])CN(CCN(CC(=O)[O-])Cc1cc(CCC(=O)NCCCCCC(=O)NCCCC[C@H](NC(=O)N[C@@H](CCC(=O)O)C(=O)O)C(=O)O)ccc1[O-])Cc1cc(CCC(=O)O)ccc1[O-].[68Ga+3].[OH3+] [^68Ga-PSMA-11] | no discrepancy on retention time or product purity was observed

From patent US12589170B2, “Devices and methods for radiopharmaceutical synthesis” (VANDERBILT UNIVERSITY, priority 2019, dated 2026)
